Values quoted from earlier work as cited in patent US11690524B2, “Assessment of iron deposition post myocardial infarction as a marker of myocardial hemorrhage” (Cedars-Sinai Medical Center, priority 2011, dated 2023).

How the values were obtained:
post MI patients = conditions: 6 months of therapy, TACT trial
[1] = qualitative statement

O=C(O)CN(CCN(CC(=O)O)CC(=O)O)CC(=O)O [EDTA]
effect on MACE (major adverse cardiovascular events) (post MI patients): did not decrease MACE

CC(=O)N(O)CCCCCNC(=O)CCC(=O)N(O)CCCCCNC(=O)CCC(=O)N(O)CCCCCN [deferoxamine]
half-life in plasma / plasma life [1]: short

Cc1c(O)c(=O)ccn1C [Deferiprone]
half-life in plasma / plasma life [1]: longer
